{"source": "patent US10238713B2", "about": "“Cyclic tetrapeptides and therapeutic applications thereof” (LODZ UNIVERSITY OF TECHNOLOGY, priority 2010, dated 2019)", "system": "BALB/c mice, contact sensitivity to oxazolone", "assay": "Contact sensitivity to oxazolone in BALB/c mice (ear edema, draining lymph node cells, auricle histology)", "type": "in vivo", "method": "Mice: BALB/c female mice, 8-10 week-old, delivered by the Institute of Laboratory Medicine, Łódź, Poland, were used for the study. The mice were fed a commercial, pelleted food and water ad libitum. The local ethics committee approved the study.\nThe test was performed according to Noonan et al. (Int. Arch. Allergy Appl. Immunol., 1978, 56, 523-532), with some modifications. Mice were shaved on the abdomen (2×2 cm area) and after 24 h 100 μl of 0.5% oxazolone in acetone was applied to the shaved area. The contact sensitivity reaction was elicited 5 days later by application of 50 μl of 1% oxazolone in acetone on both sides of the ears. Ear edema was measured 48 h later using a spring caliper. The results were presented as antigen-specific increase of ear thickness (i.e. the background (BG) ear thickness of mice was subtracted from the measured thickness).\nIn the experiment shown, the compound of formula I-A was applied topically as a 0.1% ointment on both sides of the ears (total volume of 50 μl per ear), at 24 h and 26 h after elicitation of the reaction with the second dose of oxazolone. Reference compounds were used in a similar fashion in the form of commercially available preparations.\nSuperficial parotid, mandibular and accessory mandibular lymph nodes were isolated, homogenized by pressing against a stainless screen into phosphate buffered solution (PBS), washed twice and re-suspended in PBS containing 0.2% Trypan blue. The total and nonviable cell numbers were determined using a light microscope and Bürker's hemocytometer. Mice treated only with the eliciting dose of antigen served as a background control.\nThe auricles were fixed in 4% formalin solution for 48 h, washed for 24 h, dehydrated in an alcohol series and embedded in paraffin. The paraffin blocks were sliced in a Micron HM310 microtome into 6 μm sections. The sections were stained with haematoxylin and eosin and with toluidine blue. The histological analysis was performed in a Nikon Eclipse 801 light microscope. On the histological slides containing cross-sections of auricles, the morphometric estimations of neutrophils, macrophages, lymphocytes and mast cells in the perivascular and subepithelial connective tissue were performed. The cells were counted on the area of 0.07 mm^2 at 400× magnification. Morphometric analysis was done with the aid of imagine software NIS-Elements (Nikon). For every examined group, 25 enumerations of neutrophils, macrophages, lymphocytes and mast cells were carried out.", "note": "Non-standard residues stand in square brackets, D forms with d. Residues, ends and D or L forms follow the SMILES beside them. β3hF = N[C@H](CC(=O)O)Cc1ccccc1", "data": [{"smiles": "O=C1C[C@H](Cc2ccccc2)NC(=O)[C@@H]2CCCN2C(=O)[C@@H]2CCCN2C(=O)[C@H](Cc2ccccc2)N1", "note": "[I-A] (cyclo(FPP[β3hF]))", "values": [{"measurement": "toxic effect on draining lymph node cells (proportions of viable and dead cells)", "setting": "topical treatment, compared to control non-treated mice, FIG. 3", "value": "negligible toxic effect"}, {"measurement": "number of cells in the draining lymph nodes", "setting": "topical treatment, FIG. 2", "value": "decreased the numbers of lymphocytes in the draining lymph nodes to the level registered in non-sensitized mice"}, {"measurement": "cell number and composition in the inflamed auricles (histology)", "setting": "topical treatment, FIG. 4", "value": "almost entirely reversed the changes observed in control mice"}, {"measurement": "inhibition of the ear edema (antigen-specific increase of ear thickness)", "setting": "topical, I-A as 0.1% ointment, references as commercial preparations, 24 h and 26 h after elicitation, FIG. 1", "value": "about 80%"}]}]}
